Laboratory results as given in patent publication US20250115578A1, “AROMATIC FUSED RING NAV1.8 INHIBITOR, AND USE THEREOF” (CHENGDU KANGHONG PHARMACEUTICAL CO., LTD., priority 2022, published 2025).
≈ marks a conversion by molar mass, not a printed value. Where two headings read alike, the source gives them in different places.

Columns and labels:
[1] = biological target: hNav1.8 (Homo sapiens (Human), UniProt Q9Y5Y9); experiment: Manual patch clamp, Method 1 (CHO cell line stably expressing hNav1.8); type: cell-based; details: for inhibition at 0.01 µM / inhibition at 0.1 µM: read-out: Inhibition rate of hNav1.8; for IC50: Method 1, CHO-hNav1.8, manual patch clamp, resting state, read-out: IC50 inhibitory activity against hNav1.8; for inhibition at 0.1 µM: 100 nM
Source text: The patch clamp technique is known as the “gold standard” for studying ion channels, and it uses glass microelectrodes to seal the cell membrane to measure the currents of various membrane channel. […] Patch clamp technology can evaluate the inhibition strength of different compounds on different states of Navs by measuring the changes of membrane channel currents after different compounds bind to different states of Navs.
The representative compounds of the present invention used stable CHO or HEK293 cell lines transfected with specific ion channels to measure the effect of the compounds on Nav1.8 currents by manual patch clamp test, to evaluate their inhibition strength.
The assay protocol of manual patch clamp is as follows:
CHO cell lines with stable expression of hNav1.8 were cultured in F12 medium containing 10% fetal bovine serum at a constant temperature of 37° C., and the carbon dioxide concentration was maintained at 5%. The old culture medium was removed and washed once with PBS, then 1 mL 0.25%-Trypsin-EDTA solution was added and incubated at 37° C. for 1 min. When the cells were detached from the bottom of the dish, 5 mL of the complete medium preheated at 37° C. was added, and the aggregated cells were separated by gently blowing with a straw. The cell suspension was transferred into a sterile centrifuge tube and centrifuged at 1000 rpm for 5 min to collect cells. The cells were then inoculated into a cell culture dish with a diameter of 6 cm (2.5×10^5 cells/petri dish, 5 mL medium) for expansion or maintenance.
In order to maintain the electrophysiological activity of the cells, the cell density must be less than 80%.
The cells were separated with 0.25%-Trypsin-EDTA before the assay, and 5×10^3 cells were seeded on a cover slip and cultured in a 24-well plate (final volume: 500 μL) for 18 h. Then the assay was conducted.
The compounds prepared in the examples of the present invention were dissolved in dimethyl sulfoxide (DMSO) and prepared into DMSO stock solution with a concentration of 10 mM for assay. And it was diluted to various concentrations with extracellular solution (140 mM NaCl, 3.5 mM KCl, 1 mM MgCl2, 2 mM CaCl2), 10 mM Glucose, 10 mM HEPES, 1.25 mM NaH2PO4, pH=7.4 regulated by NaOH), and the final concentration of DMSO in each compound sample was 0.10% or less.
A capillary glass pipette (BF150-86-10, Sutter Instruments) was pulled into a recording electrode with a micropipette puller (P97, Sutter Instruments). The micromanipulator (MP285, Sutter Instruments) was manipulated under an inverted microscope (IX71, Olympus) to make the recording electrode contact the cell and negative pressure suction was applied to achieve a GQ seal. Then, rapid capacitance compensation was performed, and negative pressure was continued, cell membrane was broken by suction, and whole cell recording mode was formed. Then the slow capacitance was compensated and the membrane capacitance and series resistance were recorded without leakage compensation. When the whole cell recording current was stabilized, dosing was initiated, and the next concentration was detected after acting 5 minutes of each drug concentration. Multiple cells were independently repeated during the recording period. All electrophysiological assays were performed at room temperature. Specifically, 6 concentrations (measuring IC50) or 2 concentrations (preliminary screening) were set for each compound, and the percentage of inhibition of sodium channels was determined by calculating the relative percentage of peak current generated before and after each concentration compound treated cells, and the IC50 value or percentage of inhibition at a specific concentration was calculated using IGOR pro software.

[2] = Assay of kinetic solubility; type: physicochemical; details: aqueous buffer, kinetic from dmso stock, pH 3.5 phosphate buffer, 25° C.
Experimental: The stock solutions of the test compound and the standard progesterone were prepared in DMSO at the concentration of 10 mM.
30 μL of stock solutions at 10 mM of the test compounds and standard substance were placed in order into their proper 96-well plate. 970 μL phosphate buffer at the specified pH was added to the proper vial of the sample plate. The assay was performed in duplicate. A stirring stick was added to each vial and the teflon/silicone plug was capped. The sample tray was then placed in the Eppendorf Thermomixer Comfort and shaken at 1100 RPM at 25° C. for 2 hours. After 2 hours, plugs were removed, a big magnet was used to remove the stirring sticks, and samples were transferred from the sample plate to the filter plate. Vacuum pump was used to create negative pressure and filtered the samples. Transferred 5 μL of the filtrate to the new sample plate, then added 5 μL DMSO and 490 μL water/acetonitrile (V/V=1/1) to dilute the solvent. The dilution factor may be adjusted according to the solubility values of the substances to be tested or the strength of its LC-MS signal response.
From the 10 mM DMSO stock solution, 15 μL of that was transferred into the empty plate and 485 μL DMSO was added to prepare a 300 μM standard solution. From the 300 μM standard solution plate, 5 μL of that was transferred to another empty plate and 5 μL phosphate buffer at specified pH and 490 μL water/acetonitrile (V/V=1/1) dilution solvent were added to the standard solution to get a final concentration of 3 μM. The concentration of the standard solution may be adjusted according to the strength of its LC-MS signal response.
The sample plate was placed into the sample tray of the automatic sampler and the samples were evaluated by LC-MS/MS analysis.
All calculations were carried out by Microsoft Excel.
The sample filtrate was analyzed and quantified against a standard of known concentrations using LC-MS spectral peaks to identify and quantify. The solubility values of the control drug and the compounds to be tested were calculated as the following formula: • [Sample]: concentration of the sample • AREASample: peak area of the sample • INJ VOLStd: standard sample injection volume • DFSample: sample dilution factor • [STD]: standard substance concentration • AREAStd: peak area of standard substance • INJ VOLSample: sample injection volume

[3] = Stability assay for human liver microsomes in vitro; type: in vitro ADME; details: 1 μM compound, 0.5 mg/mL liver microsomes, read-out: Human liver microsome stability T1/2
Experimental: • Human liver microsomes, purchased from Corning or Xenotech, stored in a −80° C. refrigerator. • Nicotinamide adenine dinucleotide phosphate (NADPH), Chem-impex international, 00616 • Control compounds: testosterone, diclofenac, propafenone
• Water bath (HH-60, Guohua, Changzhou, China) • Pipette workstation (PP-550DS, Apricot, Covina, USA) • Centrifuge (5810R, Eppendorf, Hamburg, Germany) • Mass Spectrometer (Sciex API 4000, Singapore) • High Performance Liquid Chromatography (LC 20-AD, Shimadzu, Kyoto, Japan) • Sampler (ADDA, Apricot Designs, California, USA)
• Stock solution: 10 mM in DMSO • Working solution concentration preparation: 10 mM stock solution was diluted to 100 μM with 100% acetonitrile (organic phase content: 99% ACN, 1% DMSO)
Two 96-well incubation plates were named T60 incubation plate and NCF60 incubation plate.
445 μL microsomal working solution (liver microsomal protein concentration: 0.56 mg/mL) was added to the T60 and NCF60 incubation plates respectively, then the incubation plates above were placed in a water bath at 37° C. for pre-incubation approximately 10 minutes.
After the pre-incubation finished, 5 μL of the test compound working solution was added to the T60 and NCF60 incubation plates respectively, and mixed well. 50 μL potassium phosphate buffer was added to each well on the NCF60 incubation plate to start the reaction. 180 μL termination solution (acetonitrile solution containing 200 ng/mL tolbutamide and 200 ng/mL labetalol) and 6 uL working solution of NADPH regeneration system were added to the TO termination plate, and 54 μL samples were removed from the T60 incubation plate to the TO termination plate (TO sample generated). The reaction was initiated by adding 44 μL of NADPH regenerating system working solution per well on the T60 incubation plate. Only 54 μL microsomal working solution, 6 uL NADPH regeneration system working solution, and 180 μL termination solution were added to the Blank plate. Therefore, in the samples of the test or control compounds, the final reaction concentration of the compounds, testosterone, diclofenac and propafenone was 1 μM, the concentration of the liver microsomes was 0.5 mg/mL, and the final concentration of DMSO and acetonitrile in the reaction system was 0.01% (v/v) and 0.99% (v/v), respectively.
After incubation for an appropriate time (e.g. 5, 10, 20, 30, and 60 minutes), 180 μL of termination solution (acetonitrile solution containing 200 ng/mL tolbutamide and 200 ng/mL labetalol) was added to the sample hole of each termination plate, respectively. After that, 60 μL sample was removed from the T60 incubation plate to terminate the reaction.
All sample plates were shaken evenly and centrifuged at 3220×g for 20 min. Then 80 μL supernatant was taken from each well and diluted to 240 μL pure water for LC-MS/MS analysis.
All samples were injected for analysis.

[4] = biological target: Human Nav1.8 ion channel (Homo sapiens (Human), UniProt Q9Y5Y9); experiment: Manual patch clamp, Method 2 (HEK293 cells stably expressing human Nav1.8, resting state); type: cell-based; details: Method 2, HEK293-hNav1.8, resting state, 1 μM TTX; read-out: IC50 inhibitory activity against hNav1.8

Chain of hNav1.8 (Q9Y5Y9 whole entry): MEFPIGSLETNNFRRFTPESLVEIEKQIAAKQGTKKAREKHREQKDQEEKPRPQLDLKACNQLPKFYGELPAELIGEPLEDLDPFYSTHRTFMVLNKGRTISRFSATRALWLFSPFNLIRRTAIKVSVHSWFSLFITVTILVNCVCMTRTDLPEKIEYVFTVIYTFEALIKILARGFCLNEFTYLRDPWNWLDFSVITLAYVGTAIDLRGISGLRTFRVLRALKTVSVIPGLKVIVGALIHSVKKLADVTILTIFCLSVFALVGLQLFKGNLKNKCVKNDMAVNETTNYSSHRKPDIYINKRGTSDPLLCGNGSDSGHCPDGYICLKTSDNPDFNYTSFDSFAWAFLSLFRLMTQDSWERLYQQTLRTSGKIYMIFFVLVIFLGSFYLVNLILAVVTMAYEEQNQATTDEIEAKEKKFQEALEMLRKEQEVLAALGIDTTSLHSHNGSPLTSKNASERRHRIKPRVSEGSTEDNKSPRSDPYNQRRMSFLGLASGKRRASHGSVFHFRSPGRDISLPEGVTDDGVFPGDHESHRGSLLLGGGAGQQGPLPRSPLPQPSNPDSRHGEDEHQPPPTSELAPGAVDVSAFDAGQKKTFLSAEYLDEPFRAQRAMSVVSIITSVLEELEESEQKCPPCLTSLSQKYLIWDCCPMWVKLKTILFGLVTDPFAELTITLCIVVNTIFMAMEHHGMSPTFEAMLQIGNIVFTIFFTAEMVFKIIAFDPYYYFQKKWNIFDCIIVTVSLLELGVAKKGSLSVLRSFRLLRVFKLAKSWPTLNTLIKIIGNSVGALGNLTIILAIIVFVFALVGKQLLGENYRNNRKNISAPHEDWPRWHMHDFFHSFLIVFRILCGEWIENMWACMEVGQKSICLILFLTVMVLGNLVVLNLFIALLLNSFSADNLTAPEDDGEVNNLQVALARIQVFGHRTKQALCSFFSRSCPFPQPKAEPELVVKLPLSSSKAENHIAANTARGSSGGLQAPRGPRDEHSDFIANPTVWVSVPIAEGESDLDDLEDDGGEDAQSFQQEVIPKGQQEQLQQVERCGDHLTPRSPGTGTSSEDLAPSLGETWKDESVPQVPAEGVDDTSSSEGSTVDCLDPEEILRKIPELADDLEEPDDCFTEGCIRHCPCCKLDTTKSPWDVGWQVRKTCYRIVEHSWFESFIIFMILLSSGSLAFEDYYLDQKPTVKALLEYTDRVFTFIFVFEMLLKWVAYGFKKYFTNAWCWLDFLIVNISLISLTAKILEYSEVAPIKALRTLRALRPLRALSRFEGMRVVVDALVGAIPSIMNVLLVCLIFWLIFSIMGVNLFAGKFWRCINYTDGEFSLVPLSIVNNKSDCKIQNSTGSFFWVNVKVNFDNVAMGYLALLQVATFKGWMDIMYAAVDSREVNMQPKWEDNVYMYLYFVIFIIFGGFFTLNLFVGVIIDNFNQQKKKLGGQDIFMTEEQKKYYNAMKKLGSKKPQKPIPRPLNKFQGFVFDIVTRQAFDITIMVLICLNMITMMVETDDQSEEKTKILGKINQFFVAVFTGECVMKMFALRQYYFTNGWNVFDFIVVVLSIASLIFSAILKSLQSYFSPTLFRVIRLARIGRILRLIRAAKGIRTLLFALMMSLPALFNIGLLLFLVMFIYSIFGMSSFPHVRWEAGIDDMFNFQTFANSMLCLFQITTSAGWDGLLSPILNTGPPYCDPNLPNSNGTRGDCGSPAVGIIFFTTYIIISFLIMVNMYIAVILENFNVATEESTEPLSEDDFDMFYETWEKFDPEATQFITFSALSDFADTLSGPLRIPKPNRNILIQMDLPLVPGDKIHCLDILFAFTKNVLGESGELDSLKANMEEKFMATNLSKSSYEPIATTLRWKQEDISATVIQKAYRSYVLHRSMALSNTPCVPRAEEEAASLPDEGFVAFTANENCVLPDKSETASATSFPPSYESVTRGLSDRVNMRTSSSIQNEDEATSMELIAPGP

Structure (SMILES)	inhibition at 0.01 µM ([1]; CHO) [%]	IC50 [1] [nM]	solubility kinetic at 2 h [2] [µM]	half-life at 1 µM [3] [h]	inhibition at 0.01 µM ([1]; 10 nM, Method 1, CHO-hNav1.8) [%]	IC50 [4] [nM]	inhibition at 0.1 µM ([1]; Method 1, CHO-hNav1.8) [%]
NS(=O)(=O)c1cc(NC(=O)c2nc3ccccc3nc2N2CCCC(F)(F)CC2)ccn1 [Example 06, 3-(4,4-difluoroazepan-1-yl)-N-(2-sulfamoylpyridin-4-yl)quinoxaline-2-carboxamide]	77.6	3.1	0.39 (≈ 0.18 µg/mL)	> 2.42	–	–	–
NC(=O)c1cccc(NC(=O)c2nc3ccccc3nc2N2CCCC(F)(F)CC2)c1 [Example 07, N-(3-carbamoylphenyl)-3-(4,4-difluoroazepan-1-yl)quinoxaline-2-carboxamide]	–	14.7	52.7 (≈ 22.4 µg/mL)	1.06	48.3	–	–
NC(=O)c1cc(NC(=O)c2cc3ccccc3nc2N2CCCC(F)(F)CC2)ccc1F [Example 09, N-(3-carbamoyl-4-fluorophenyl)-2-(4,4-difluoroazepan-1-yl)quinoline-3-carboxamide]	–	1	157 (≈ 69.6 µg/mL)	0.372	91.3	0.918	–
Cc1ccc2cc(C(=O)Nc3ccnc(C(N)=O)c3)c(N3CCCC(F)(F)CC3)nc2c1 [Example 23, N-(2-carbamoylpyridin-4-yl)-2-(4,4-difluoroazepan-1-yl)-7-methylquinoline-3-carboxamide]	–	–	–	–	–	1.5	97.2
COc1cc2cc(C(=O)Nc3ccnc(C(N)=O)c3)c(N3CCCC(F)(F)CC3)nc2cc1OC [Example 24, N-(2-carbamoylpyridin-4-yl)-2-(4,4-difluoroazepan-1-yl)-6,7-dimethoxyquinoline-3-carboxamide]	–	–	9.88 (≈ 4.8 µg/mL)	> 2.42	–	97.1	51
CS(=N)(=O)c1cc(NC(=O)c2cc3ccccc3nc2N2CCCC(F)(F)CC2)ccn1 (centres unmarked) [Example 26, 2-(4,4-difluoroazepan-1-yl)-N-(2-(S-methylsulfonimidoyl)pyridin-4-yl)quinoline-3-carboxamide]	–	–	127 (≈ 58.4 µg/mL)	1.17	–	8	91.5
CS(=N)(=O)c1cc(NC(=O)c2cc3cc(F)c(F)cc3nc2N2CCCC(F)(F)CC2)ccn1 (centres unmarked) [Example 27, 2-(4,4-difluoroazepan-1-yl)-6,7-difluoro-N-(2-(S-methylsulfonimidoyl)pyridin-4-yl)quinoline-3-carboxamide]	–	–	78.8 (≈ 39 µg/mL)	2.26	–	–	97
CNS(=O)(=O)c1cc(NC(=O)c2cc3ccccc3nc2N2CCCC(F)(F)CC2)ccn1 [Example 28, 2-(4,4-difluoroazepan-1-yl)-N-(2-(N-methylsulfamoyl)pyridin-4-yl)quinoline-3-carboxamide]	–	–	131 (≈ 62.3 µg/mL)	–	–	11.4	94.2
NS(=O)(=O)c1cccc(NC(=O)c2cc3ccccc3nc2Oc2ccc(F)cc2Cl)c1 [Example 30, 2-(2-chloro-4-fluorophenoxy)-N-(3-sulfamoylphenyl)quinoline-3-carboxamide, reference compound]	–	–	< 0.18	–	–	9.5	94
Cc1cc(F)ccc1Oc1cc(C(F)(F)F)ccc1C(=O)Nc1cc[nH]c(=O)c1 [Example 32, 2-(4-fluoro-2-methylphenoxy)-N-(2-carbonyl-1,2-dihydropyridin-4-yl)-4-(trifluoromethyl)benzamide, reference compound]	–	–	< 1.56	–	38.1	–	84.7
